Source: patent US8415380B2 (Hoffmann-La Roche Inc., priority 2007, dated 2013)

Assays:
rat mGlu2 receptor = molecular target: T1, rat mGlu2 receptor (Rattus norvegicus, UniProt P31421); experiment: [3H]-LY354740 binding on mGlu2 transfected CHO cell membranes; conditions: 10 nM [3H]-LY354740, mGlu2 transfected CHO cell membranes, room temperature, 1 hour
T1 construct: expressed in transfected cells; membranes prepared
Description: [^3H]-LY354740 Binding on mGlu2 Transfected CHO Cell Membranes Transfection and Cell Culture
cDNA encoding the rat mGlu2 receptor protein in pBluescript II was subcloned into the eukaryotic expression vector pcDNA I-amp from Invitrogen Ltd (Paisley, UK). This vector construct (pcD1mGR^2) was co-transfected with a psvNeo plasmid encoding the gene for neomycin resistance, into CHO cells by a modified calcium phosphate method described by Chen & Okayama (1988). The cells were maintained in Dulbecco's Modified Eagle medium with reduced L-glutamine (1 mM final concentration), 36 mg/L L-Proline and 10% dialysed foetal calf serum from Gibco-Invitrogen; the medium was supplemented with 500 microM α-methyl-4-carboxyphenylglycine (MCPG). Selection was made in the presence of G-418 (300 ug/ml final concentration). Clones were identified by reverse transcription of 5 μg total RNA, followed by PCR using mGlu2 receptor specific primers 5′-[…]-3′ and 5′-[…]-3′ in 60 mM Tris HCl (pH 10), 15 mM (NH4)2SO4, 2 mM MgCl2, 25 units/ml Taq Polymerase with 30 cycles annealing at 60° C. for 1 min., extention at 72° C. for 30 s, and 1 min. 95° C. denaturation.
Cells, cultured as above, were harvested and washed three times with cold PBS and frozen at −80° C. The pellet was resuspended in cold 20 mM HEPES-NaOH buffer containing 10 mM EDTA (pH 7.4), and homogenised with a polytron (Kinematica, A G, Littau, Switzerland) for 10 s at 10 000 rpm. After centrifugation for 30 min. at 4° C., the pellet was washed once with cold 20 mM HEPES-NaOH buffer containing 0.1 mM EDTA, (pH 7.4). After a second centrifugation for 30 min. at 4° C. the pellet was resuspended in cold 20 mM HEPES-NaOH buffer containing 0.1 mM EDTA, (pH 7.4). Protein content was measured using the Micro BCA method from Pierce-Perbio (Rockford, Ill., USA) using bovine serum albumin as standard.
After thawing, the membranes were resuspended in cold 50 mM Tris-HCl buffer containing 2 mM MgCl2 (pH 7.4) (binding buffer). The final concentration of the membranes in the assays was 25 μg protein/ml. Inhibition experiments were performed with membranes incubated with 10 nM [^3H]-LY354740 at room temperature, for 1 hour, in presence of various concentrations of the compound to be tested. Following the incubations, membranes were filtered onto Whatmann GF/B glass fiber filters or onto GF/B Unifilter plates and washed 5 times with cold binding buffer. Non specific binding was measured in the presence of 10 μM (2S,2′R,3′R)-2-(2′3′-Dicarboxycyclopropyl)glycine (DCG IV from Tocris, Ellisville, Mo. USA). After transfer of the filters into plastic vials containing 10 ml of Ultima-gold scintillation fluid from Perkin-Elmer (Boston, Mass., USA), the radioactivity was measured by liquid scintillation in a Tri-Carb 2500 TR counter (Packard, Zurich, Switzerland). For 96-Unifilter plates the radioactivity was measured after addition of Microscint 40 scintillation fluid (Perkin Elmer, Boston Mass.) using a TopCount NXT (Packard)
The inhibition curves were fitted with a four parameter logistic equation giving IC50 values, and Hill coefficients.

T1 sequence (P31421 19-872): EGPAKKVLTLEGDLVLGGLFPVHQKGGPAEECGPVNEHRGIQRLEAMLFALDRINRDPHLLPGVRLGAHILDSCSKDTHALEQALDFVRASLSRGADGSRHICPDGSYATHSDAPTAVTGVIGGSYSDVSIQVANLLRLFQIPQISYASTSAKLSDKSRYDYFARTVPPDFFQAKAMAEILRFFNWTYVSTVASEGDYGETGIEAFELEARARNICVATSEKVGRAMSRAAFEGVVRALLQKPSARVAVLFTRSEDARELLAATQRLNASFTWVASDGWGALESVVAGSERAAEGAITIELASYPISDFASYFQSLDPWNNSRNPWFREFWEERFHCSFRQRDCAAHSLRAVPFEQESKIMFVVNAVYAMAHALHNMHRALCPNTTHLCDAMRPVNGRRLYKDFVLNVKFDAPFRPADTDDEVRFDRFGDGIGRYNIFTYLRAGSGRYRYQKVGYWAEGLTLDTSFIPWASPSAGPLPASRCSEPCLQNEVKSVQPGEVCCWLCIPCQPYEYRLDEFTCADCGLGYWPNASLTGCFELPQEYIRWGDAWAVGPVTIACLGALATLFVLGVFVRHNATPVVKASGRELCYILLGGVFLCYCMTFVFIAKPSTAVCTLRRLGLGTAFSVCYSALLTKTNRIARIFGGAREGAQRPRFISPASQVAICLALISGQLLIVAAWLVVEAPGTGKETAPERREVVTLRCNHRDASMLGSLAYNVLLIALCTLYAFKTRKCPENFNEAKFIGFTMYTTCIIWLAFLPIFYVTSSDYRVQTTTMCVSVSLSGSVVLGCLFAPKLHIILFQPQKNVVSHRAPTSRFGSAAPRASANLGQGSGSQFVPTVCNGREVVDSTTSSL

Row | melting point | Ki (rat mGlu2 receptor) | Compound
1 | 259 °C | 33 nM | Nc1ccc(-c2cn(-c3nc(-c4ccc(C(F)(F)F)nc4)cc(C(F)(F)F)n3)cn2)cn1 [Example 13, 5-{1-[4-Trifluoromethyl-6-(6-trifluoromethyl-pyridin-3-yl)-pyrimidin-2-yl]-1H-imidazol-4-yl}-pyridin-2-ylamine]
2 | 250.5 °C | 12 nM | NS(=O)(=O)c1ccc(-c2cccc(-c3nc(-c4ccc(C(F)(F)F)nc4)cc(C(F)(F)F)n3)c2)s1 [Example 3, 5-{3-[4-Trifluoromethyl-6-(6-trifluoromethyl-pyridin-3-yl)-pyrimidin-2-yl]-phenyl}-thiophene-2-sulfonic acid amide]
3 | 261.5 °C | 15.6 nM | Nc1ccc(-c2cc(-c3nc(-c4ccc(C(F)(F)F)nc4)cc(C(F)(F)F)n3)ccn2)cn1 [Example 8, 4-[4-Trifluoromethyl-6-(6-trifluoromethyl-pyridin-3-yl)-pyrimidin-2-yl]-[2,3′]bipyridinyl-6′-ylamine]
4 | 211 °C | 1.8 nM | NS(=O)(=O)c1cccc(-c2cccc(-c3nc(-c4ccc(C(F)(F)F)nc4)cc(C(F)(F)F)n3)c2)c1 [Example 2, 3′-[4-Trifluoromethyl-6-(6-trifluoromethyl-pyridin-3-yl)-pyrimidin-2-yl]-biphenyl-3-sulfonic acid amide]

Second part, the molecule before the results:

Row | Compound | melting point | Ki (rat mGlu2 receptor)
5 | Cc1cc(-c2ccc(C(F)(F)F)nc2)cc(-c2cccc(-c3ccc(N)nc3)c2)n1 [Example 33, 5-[3-(6′-Methyl-6-trifluoromethyl-[3,4′]bipyridinyl-2′-yl)-phenyl]-pyridin-2-ylamine] | 124 to 125 °C | 42 nM
6 | Nc1ccc(-c2cccc(-c3nc(-c4ccc(Cl)s4)cc(C(F)(F)F)n3)c2)cn1 [Example 5, 5-{3-[4-(5-Chloro-thiophen-2-yl)-6-trifluoromethyl-pyrimidin-2-yl]-phenyl}-pyridin-2-ylamine] | 99 °C | 139 nM
7 | Cc1cc(-c2ccc(C(F)(F)F)nc2)nc(-n2cnc(-c3ccc(N)nc3)c2)n1 [Example 20, 5-{1-[4-Methyl-6-(6-trifluoromethyl-pyridin-3-yl)-pyrimidin-2-yl]-1H-imidazol-4-yl}-pyridin-2-ylamine] | 220 °C | 62 nM
